Results from PubChem BioAssay AID256 (DTP/NCI, 2004).
Values joined by “and” are separate entries in the source; they are usually repeats but may differ in a detail not shown here. Equal entries are not always repeated. Inconclusive results and toxic doses are left out. Rule for the calls: active = survival T/C of 150% or more; inactive = T/C below 125% in these data.

System: CD2F1 mice, L1210 leukemia ip, survival T/C
Test: NCI In Vivo Anticancer Drug Screen. Data for tumor model L1210 Leukemia (intraperitoneal) in CD2F1 (CDF1) mice
Conditions: endpoint: mean survival time, higher = longer survival
In short: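 Ratio T/C, where T is the treated-group value and C the vehicle-dosed control value, from mice implanted with a transplantable tumor.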

[1] = dose: 100.0 mg/kg/injection, schedule: Q04DX003 (ip), vehicle: saline with Tween-80
[2] = dose: 200.0 mg/kg/injection, schedule: Q04DX003 (ip), vehicle: saline with Tween-80
[3] = dose: 400.0 mg/kg/injection, schedule: Q04DX003 (ip), vehicle: saline with Tween-80
[4] = dose: 100.0 mg/kg/injection, schedule: Q04DX003 (ip), vehicle: saline
[5] = dose: 100.0 mg/kg/injection, schedule: Q04DX002 (ip), vehicle: saline with Tween-80
[6] = dose: 200.0 mg/kg/injection, schedule: Q04DX002 (ip), vehicle: saline with Tween-80
[7] = dose: 100.0 mg/kg/injection, schedule: Q01DX009 (ip), vehicle: saline with Tween-80
[8] = dose: 200.0 mg/kg/injection, schedule: Q01DX009 (ip), vehicle: saline with Tween-80
[9] = dose: 400.0 mg/kg/injection, schedule: Q01DX009 (ip), vehicle: saline with Tween-80

Measured: T/C

CN/N=C1\CCC2C3CCc4cc(O)ccc4C3CCC12C (stereo unspecified)
inactive: dose: 25.0 mg/kg/injection, schedule: Q01DX009 (ip), vehicle: Klucel (hydroxypropylcellulose) (HPC) 102 % of control | dose: 50.0 mg/kg/injection, schedule: Q01DX009 (ip), vehicle: Klucel (hydroxypropylcellulose) (HPC) 103 % of control

CN(C)Cc1cc(C(C)(C)C)cc(C2CCCCC2)c1O
inactive: [1] 100 % of control | [2] 100 % of control | [3] 103 % of control

[CH3][Sn]([CH3])([Cl])[Cl]
inactive: dose: 5.0 mg/kg/injection, schedule: Q01DX009 (ip), vehicle: saline 106 % of control | dose: 10.0 mg/kg/injection, schedule: Q01DX009 (ip), vehicle: saline 98 % of control | dose: 20.0 mg/kg/injection, schedule: Q01DX009 (ip), vehicle: saline 95 % of control

Oc1ccccc1/C=N/c1nc2ccc(Cl)cc2s1.Oc1ccccc1/C=N/c1nc2ccc(Cl)cc2s1.[Zn]
inactive: dose: 25.0 mg/kg/injection, schedule: Q01DX001 (ip), vehicle: saline 96 % of control | dose: 50.0 mg/kg/injection, schedule: Q01DX001 (ip), vehicle: saline 91 % of control | dose: 100.0 mg/kg/injection, schedule: Q01DX001 (ip), vehicle: saline 87 % of control

Cn1ncc2c1C(=O)c1nc(-c3ccccc3)c(-c3ccccc3)nc1C2=O
inactive: dose: 50.0 mg/kg/injection, schedule: Q04DX003 (ip), vehicle: saline 98 % of control | [4] 92 % of control

O=C(Nc1ccc(S(=O)(=O)N2CCCCC2)cc1)Oc1ccc([N+](=O)[O-])cc1
inactive: dose: 5.0 mg/kg/injection, schedule: Q01DX001 (ip), vehicle: other 97 % of control | dose: 10.0 mg/kg/injection, schedule: Q01DX001 (ip), vehicle: other 108 % of control | dose: 20.0 mg/kg/injection, schedule: Q01DX001 (ip), vehicle: other 100 % of control | dose: 40.0 mg/kg/injection, schedule: Q01DX001 (ip), vehicle: other 100 % of control | dose: 80.0 mg/kg/injection, schedule: Q01DX001 (ip), vehicle: other 96 % of control

O=[N+]([O-])c1ccc(C2=CSc3ccccc3N2)cc1
inactive: [5] 104 % of control | [6] 108 % of control | dose: 400.0 mg/kg/injection, schedule: Q04DX002 (ip), vehicle: saline with Tween-80 104 % of control

Cc1ccc(S(=O)(=O)Oc2ccc(Br)cc2)cc1
inactive: [5] 96 % of control | [6] 86 % of control

CCCCCCCCSC#N
inactive: dose: 50.0 mg/kg/injection, schedule: Q01DX001 (ip), vehicle: carboxymethylcellulose (CMC) 100 % of control

O=S(=O)(O)c1ccc(Nc2ccccc2)cc1
inactive: [7] 105 % of control | [4] 104 % of control | [8] 97 % of control | dose: 200.0 mg/kg/injection, schedule: Q04DX003 (ip), vehicle: saline 106 % of control | [9] 103 % of control | dose: 400.0 mg/kg/injection, schedule: Q04DX003 (ip), vehicle: saline 100 % of control

C/C(Cl)=C\CNc1ncnc2c1ncn2C1OC(CO)C(O)C1O (stereo unspecified)
inactive: dose: 6.25 mg/kg/injection, schedule: Q01DX005 (ip), vehicle: distilled water + Tween-80 103 % of control | dose: 12.5 mg/kg/injection, schedule: Q01DX005 (ip), vehicle: distilled water + Tween-80 101 % of control | dose: 25.0 mg/kg/injection, schedule: Q01DX005 (ip), vehicle: distilled water + Tween-80 91 % of control | dose: 50.0 mg/kg/injection, schedule: Q01DX005 (ip), vehicle: distilled water + Tween-80 100 % of control | dose: 100.0 mg/kg/injection, schedule: Q01DX005 (ip), vehicle: distilled water + Tween-80 101 % of control

Nc1nc(=S)c2[nH]c(N=Nc3ccc(S(N)(=O)=O)cc3)nc2[nH]1
inactive: dose: 50.0 mg/kg/injection, schedule: Q04DX003 (ip), vehicle: Klucel (hydroxypropylcellulose) (HPC) 123 % of control

COC(=O)/C([O-])=C(\C(=O)OC)[n+]1cc(Br)cc2ccccc21
inactive: [5] 101 % of control | [6] 104 % of control

COc1cc(CNC(=O)CCCC2CCC2)ccc1O
inactive: dose: 3.13 mg/kg/injection, schedule: Q01DX009 (ip), vehicle: saline with Tween-80 96 % of control | dose: 6.25 mg/kg/injection, schedule: Q01DX009 (ip), vehicle: saline with Tween-80 94 % of control and 97 % of control | dose: 6.25 mg/kg/injection, schedule: Q04DX003 (ip), vehicle: saline with Tween-80 96 % of control | dose: 12.5 mg/kg/injection, schedule: Q01DX009 (ip), vehicle: saline with Tween-80 86 % of control and 97 % of control | dose: 12.5 mg/kg/injection, schedule: Q04DX003 (ip), vehicle: saline with Tween-80 101 % of control | dose: 25.0 mg/kg/injection, schedule: Q01DX009 (ip), vehicle: saline with Tween-80 100 % of control | dose: 25.0 mg/kg/injection, schedule: Q04DX003 (ip), vehicle: saline with Tween-80 95 % of control

c1ccc(-c2nc3ccc4ccccc4c3nc2-c2ccccc2)cc1
inactive: [7] 94 % of control | [1] 98 % of control | [8] 96 % of control | [2] 92 % of control | [9] 96 % of control | [3] 92 % of control
